Results as given in patent US20110081362A1, “TREATMENT OF CANCER” (THE BRIGHAM AND WOMEN'S HOSPITAL, INC., priority 2008, published 2011).
“Also recorded” adds a separate entry of the source.

How the values were obtained:
[1] = system: MDM2 and p21; experiment: Western blot of MDM2 and p21 in response to nutlin-3; type: cell-based, human; conditions: 2 days post treatment
Description: D. Top, Western blots of MDM2 protein knockdown in HCC1954 cells and HMECs by MDM2 shRNAs (4 days post-infection) as indicated in FIG. 4E.
The following primary and secondary antibodies were used for immunoblotting with the indicated dilutions: rabbit anti-Rbx1 and mouse anti-PRPS2 (1:500, Abcam), rabbit anti-MYPT1 (PPP1R12A gene product, 1:500, Upstate), mouse anti-tubulin and rabbit anti-GAPDH (1:2000, Sigma), mouse anti MDM2 (1:500, Santa Cruz), rabbit anti-BUB1 (1:500, Bethyl), mouse anti-p53 DO-1 and mouse anti-p21 (1:500, Calbiochem), goat anti-rabbit-HRP (1:5000, Jackson ImmunoResearch), and goat anti-mouse-HRP (1:5000, Jackson ImmunoResearch). Positive and negative siRNA controls, including siLUC, siTOX, siGLO duplexes and a PLK1 SMARTpool, were purchased from Dharmacon.

[2] = system: HMECs, HCT116, HCC1954 and DLD-1 cells; experiment: Cell viability after nutlin-3 treatment; type: cell-based, human; conditions: 4 days of nutlin-3 treatment; HMECs and HCT116 p53 wild-type, HCC1954 and DLD-1 p53 mutant
Protocol: Cell viability is reflective of their p53 status (HMECs and HCT116 cells, p53 wild-type; HCC1954 and DLD-1 cells, p53 mutant). Cell viability was measured after 4 days of nutlin-3 treatment (*, P<0.05). ctrl, control.
Cells were infected in triplicate in 96-well or 24-well plates with retroviruses of individual shRNAs as described above, and the media was replaced 24 h after infection. On days 2, 6, or 9 post-infection, cell viability was measured using CellTiter-Glo reagent (Promega) per manufacturer's instruction on a Wallac Victor2 plate reader (Perkin Elmer).

COc1ccc(C2=N[C@@H](c3ccc(Cl)cc3)[C@@H](c3ccc(Cl)cc3)N2C(=O)N2CCNC(=O)C2)c(OC(C)C)c1 [nutlin-3]
MDM2 and p21 protein induction [1]: MDM2 and p21 induction
Cell viability, sensitivity to nutlin-3 [2]: recapitulating the sensitivity of these cells to MDM2 inactivation; also recorded: Differential sensitivity of the four cell lines
